“Also recorded” adds a separate entry of the source.
How the values were obtained:
[1] = Partitioning coefficient of Rose Bengal, saline/1-octanol, effect of electrolyte concentration; settings: 0.5 mg/mL RB, approx. 1 day; for Kp: Partitioning coefficient (Kp)
Text: After mixing, the agent was allowed to partition for approximately 1 day. Based on absorbance measurements at 550 nm for the aqueous phase and 564 nm for the organic phase, the percentage of agent in each phase was obtained.

[2] = Biodistribution (pharmacokinetic and toxicokinetic) after single IL injection in A375 tumor; assay type: in vivo, nu/nu mice; settings: single IL injection of 1% or 6% RB
Experimental: Growth control and sham treatment groups received no injection. All dosing was performed on Study Day 1.
Pharmacokinetic and toxicokinetic data from RB-treated tumors illustrates that a single IL injection of RB leads to localized retention of drug tumor tissue. This is illustrated in FIGS. 4 and 5, which show concentration of RB in tumor tissue, peritumor tissue and blood for time points ranging from 0.5 hr to 360 hr (15 days) post injection.

[3] = Local tolerance, single subcutaneous injection into normal tissue
Experimental: The local tolerance study was conducted using female Crl:SKH-1-hrBR hairless mice (Charles river), at least 6 weeks of age and 19-27 g at study Day 1.
All dosing was performed on Study Day 1. Follow-up examination of mice was conducted at regular intervals and the test terminated on either day 4 (3 animal from each group) or Day 15 (the remaining three animals).
Clinical observations were recorded daily (including dermal scoring using the Draize scoring system). Upon sacrifice, animals were subjected to a comprehensive necroscopy. Tissue samples from the injection site (and surrounding tissue) were obtained and examined histologically.

[4] = test system: MCF-7 [ER−] tumors; test: Tumor response to IL 10% RB in saline, report 020110.01B; assay type: in vivo, BALB/c Nude Mice; settings: 10% RB IL 25-50 μL/tumor Qd × 1; within 21 days; 4/group
[5] = test system: T-47D [ER−] tumors; test: as above; assay type: in vivo, BALB/c Nude Mice; settings: 10% RB IL 25-50 μL/tumor Qd × 1; long passage T-47D [ER−]; 4/group
[6] = test system: spontaneous breast tumors; test: Tumor response to IL 10% RB in saline, report 020626.01C; assay type: in vivo, Neu+/+ x (1988A2Kb x Neu+/+) mice; settings: 10% RB IL 50 μL/tumor Qd × 1
[7] = test system: Murine Hepa I-6 tumors; test: Tumor response to IL 10% RB in saline, report 020111.01B; assay type: in vivo, BALB/c Nude Mice; settings: IL 30-50 μL/tumor Qd × 1; 8/group
[8] = test system: Murine Hepa 1-6 tumors; test: Tumor response to IL 10% RB in saline, report 051016.02B; assay type: in vivo, BALB/c Nude Mice; settings: 10% RB 45 μL/tumor Qd × 1
[9] = test system: H69Ar human resistant SCLC tumors; test: Tumor response to IL 10% RB in saline, report 051017.01B; assay type: in vivo, Nu/nu Nude Mice; settings: 10% RB 45 μL/tumor Qd × 1; 24 hours post injection and over 7 days of observation
[10] = test system: PC-3 human prostate tumors; test: Tumor response to IL 10% RB in saline, report 051017.02B; assay type: in vivo, Nu/nu Nude Mice; settings: 10% RB 45 μL/tumor Qd × 1; 24 hours post injection and over 29 days of observation
[11] = Kp of RB with and without phosphate buffer; assay type: physicochemical
Text: This may be compared to 66.7 in the absence of phosphate buffer, in which case the pH would have been between about 6 to about 6.5.

[12] = test system: cancer cells; settings: essentially excluded from normal cells; cited from earlier work
[13] = cited from earlier work
[14] = cited from earlier work; remark: listed apart in the source
[15] = test system: melanoma lesions (stage III or IV metastatic melanoma); test: Human trial, single IL injection of 10% RB solution in unbuffered saline
[16] = 25 evaluable target lesions at final follow up
[17] = analysed per patient, 11 patients
[18] = larger lesions receiving 0.2 mL or greater doses of RB

O=C([O-])c1c(Cl)c(Cl)c(Cl)c(Cl)c1-c1c2cc(I)c(=O)c(I)c-2oc2c(I)c([O-])c(I)cc12.[Na+].[Na+] [RB, 4,5,6,7-Tetrachloro-2′,4′,5′,7′-tetraiodofluorescein]
% Partitioning in Octanol ([1]; 0.00% saline): 75.79 ± 1.75%
% Partitioning in Octanol ([1]; 0.50% saline): 95.13 ± 1.43%
% Partitioning in Octanol ([1]; 0.90% saline): 98.52 ± 0.26%
% Partitioning in Octanol ([1]; 2.50% saline): 99.35 ± 0.28%
Kp ([1]; 0.00% saline): 3.14 ± 0.29
Kp ([1]; 0.50% saline): 20.8 ± 6.77
Kp ([1]; 0.90% saline): 68.2 ± 4.43
Kp ([1]; 2.50% saline): 215 ± 105
Kp ([1]; […] saline): 44.2 ± 5.52
% Partitioning in Octanol ([1]; […] saline): 97.77 ± 0.25%
persistence of markedly elevated RB levels in tumor samples ([2]; post-injection): at least 8 days
mean levels of RB in blood ([2]; 0.5 hr to 360 hr post injection): ≤ 3 µg/g
fatalities ([3]; SC, 2000 mg/kg study group (days 2 and 3), N=6): two fatalities
swelling at the injection site ([3]; SC, 250 and 500 mg/kg): Swelling was also noted in the injection site for most animals
injection site effect ([3]; SC, 1250-2000 mg/kg): massive necrosis at the injection site
histology of injection site ([3]; SC, <500 mg RB kg body weight, days 4 and 15): focal necrosis at the injection site
histological necrosis in normal tissue ([3]; SC, dosages up to 250 mg/kg at 1 days post administration): no histological evidence of necrosis
clinical outcome, local tolerance ([3]; SC, up to 500 mg RB/kg body weight (10%)): mild side effects primarily limited to localized discoloration of the injection site; also recorded: only mild clinical effects
systemic effects ([3]; lower dosage groups (below 2000 mg/kg)): No systemic effects
kidney lesions ([3]; one of the two fatalities in Group 6 (2000 mg/kg)): mild degeneration of the kidney
liver lesions ([3]; the two fatalities in Group 6 (2000 mg/kg)): mild to moderate degeneration of the liver
tumors completely ablated [4]: [ER+] (4/4), MCF-7 [ER−] (4/4),
tumors ablated [5]: (3/4).
tumor response [6]: IL RB ablated spontaneous breast
damage/necrosis to peripheral normal tissue [7]: peripheral normal tissue (0/8)
tumors fully ablated ([8]; 3 days post injection, 10/group): IL RB fully ablated 8/10 tumors 3
partial responses (number of tumors) ([8]; large tumors): responses were seen in 2 large
tumors fully ablated [9]: IL RB fully ablated 5/5 tumors 24
tumors fully ablated [10]: IL RB fully ablated 8/8 tumors 24
Kp ([11]; phosphate buffered saline, pH 7.4): 11.5
Kp ([11]; solution without phosphate buffer (unbuffered), absence of phosphate buffer, pH between about 6 to about 6.5): 66.7
uptake into cancer cells versus normal cells [12]: preferential uptake into cancer cells
half-life of RB in the murine blood stream [13]: approximately 30 min
excretion ([14]; bile): rapidly excreted from the bile in unmetabolized form
removal from the blood ([14]; blood): almost exclusively removed from the blood by the liver
objective response rate (ORR), target lesions [15, 16]: 48%
target lesions with complete response (CR), RECIST [15, 16]: 36%
target lesions with partial response (PR) [15, 16]: 12%
target lesions with progressive disease [15, 16]: 24%
target lesions with stable disease [15, 16]: 28%
CR, non-target lesions individually ([15]; 26 evaluable nontarget lesions): 15%
ORR, non-target lesions individually ([15]; 26 evaluable nontarget lesions): 27%
PD, non-target lesions individually ([15]; 26 evaluable nontarget lesions): 52%
PR, non-target lesions individually ([15]; 26 evaluable nontarget lesions): 12%
CR, overall response per patient [15, 17]: 27%
ORR, overall response per patient [15, 17]: 55%
PR, overall response per patient [15, 17]: 27%
progressive disease (PD), overall response per patient [15, 17]: 18%
stable disease (SD), overall response per patient [15, 17]: 27%
CR [15, 18]: 62%
PR [15, 18]: 8%
successful chemoablation (CR + PR) [15, 18]: ~70%
ORR of nontarget lesions ([15]; patients with a negative lesion response): 0%
ORR of nontarget lesions ([15]; patients with a positive objective response of target lesions): 44%
CR, non-target lesions per patient ([15]; per patient basis): 9%
ORR, non-target lesions per patient ([15]; per patient basis): 27%
PD, non-target lesions per patient ([15]; per patient basis): 27%
PR, non-target lesions per patient ([15]; per patient basis): 18%
Subsequent status ([15]; per patient, some had subsequent other treatment): Alive at 34; also recorded: Dead at 12; also recorded: Dead at 9; also recorded: Alive at 31; also recorded: Alive at 27; also recorded: Dead at 8; also recorded: Alive at 28; also recorded: Alive at 29; also recorded: Alive at 30
adverse effects ([15]; single IL treatment): generally mild and transient

Reference: patent US20090117199A1, “Method of treatment of cancer” (priority 1998, published 2009)
